Where a name gives a salt, the structure may show the parent alone.

Chain of HIF PHD2 (Q9GZT9 whole entry): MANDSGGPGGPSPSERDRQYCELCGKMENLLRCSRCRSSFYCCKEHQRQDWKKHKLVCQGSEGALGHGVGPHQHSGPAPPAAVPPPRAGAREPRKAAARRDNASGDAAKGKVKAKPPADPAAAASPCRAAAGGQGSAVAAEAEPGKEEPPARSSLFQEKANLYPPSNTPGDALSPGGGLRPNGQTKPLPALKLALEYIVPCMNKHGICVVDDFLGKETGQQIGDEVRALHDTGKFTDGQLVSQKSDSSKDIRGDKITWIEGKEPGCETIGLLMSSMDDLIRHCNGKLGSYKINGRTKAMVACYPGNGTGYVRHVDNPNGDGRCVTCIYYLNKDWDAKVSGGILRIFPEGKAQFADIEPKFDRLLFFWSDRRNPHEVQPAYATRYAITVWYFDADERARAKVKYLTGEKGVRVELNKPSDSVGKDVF

This assay addresses HIF PHD2 (Homo sapiens, UniProt Q9GZT9). Briefly: PHD2 inhibition assay (TR-FRET, VCB-Eu detection of hydroxylated P564-HIF1α peptide). The class given is biochemical. The following applies: 2 nM PHD2, 100 nM P564-HIF1α peptide, 0.25 μM 2-oxoglutarate. The method, boiled down:
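Human PHD2 (2 nM final) preincubated 1 h at room temperature with compound and 100 μM FeCl2 in pH 6 MES buffer, 5% DMSO final. Reaction with 100 nM biotinylated P564-HIF1α peptide, 2 mM ascorbate and 0.25 μM 2-oxoglutarate for 1 h, stopped with succinate. Hydroxylation read by TR-FRET (VCB-Eu/streptavidin-APC, 655/615 nm); IC50 from 4-parameter fit of percent of control.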
(In TR-FRET formats the signal depends on donor and acceptor labels being close together.)
The term IC50 denotes the concentration needed to halve the response being measured. As to `CCCCc1cnc2c(c1)c(O)c(C(=O)NCC(=O)O)c(=O)n2C` [Example 72, 2-(6-Butyl-4-hydroxy-1-methyl-2-oxo-1,2-dihydro-1,8-naphthyridine-3-carboxamido)acetic acid], the IC50 lay within 0.05 to 0.1 µM.

In turn, `C[C@H](NC(=O)c1c(O)c2cc(I)cnc2n(C)c1=O)C(=O)O` [Example 73, (S)-2-(4-Hydroxy-6-iodo-1-methyl-2-oxo-1,2-dihydro-1,8-naphthyridine-3-carboxamido)propanoic acid] registered an IC50 of less than 0.05 µM.

Take `C[C@H](NC(=O)c1c(O)c2cc(-c3ccccc3)cnc2n(C)c1=O)C(=O)O` [Example 74, (S)-2-(4-Hydroxy-1-methyl-2-oxo-6-phenyl-1,2-dihydro-1,8-naphthyridine-3-carboxamido)propanoic acid]: the IC50 fell in the range of 0.1 to 0.5 µM.

Consider `Cn1c(=O)c(C(=O)NCC(=O)O)c(O)c2cc(I)cnc21` [Example 75, 2-(4-Hydroxy-6-iodo-1-methyl-2-oxo-1,2-dihydro-1,8-naphthyridine-3-carboxamido)acetic acid], for which the IC50 was less than 0.05 µM.

Take `Cn1c(=O)c(C(=O)NCC(=O)O)c(O)c2cccnc21` [Example 76, 2-(4-Hydroxy-1-methyl-2-oxo-1,2-dihydro-1,8-naphthyridine-3-carboxamido)acetic acid]: the IC50 is 0.05 to 0.1 µM.

In turn, `Cn1c(=O)c(C(=O)NCC(=O)O)c(O)c2cc(F)cnc21` [Example 77, 2-(6-Fluoro-4-hydroxy-1-methyl-2-oxo-1,2-dihydro-1,8-naphthyridine-3-carboxamido)acetic acid] registered an IC50 of 0.05 to 0.1 µM.

Regarding `Cn1c(=O)c(C(=O)NCC(=O)O)c(O)c2cc(C#CC(C)(C)C)cnc21` [Example 78, N-((6-(3,3-Dimethyl-1-butyn-1-yl)-4-hydroxy-1-methyl-2-oxo-1,2-dihydro-1,8-naphthyridin-3-yl)carbonyl)glycine], the IC50 was less than 0.05 µM.

As for `CCc1cnc2c(c1)c(O)c(C(=O)NCC(=O)O)c(=O)n2C` [Example 79, 2-(6-Ethyl-4-hydroxy-1-methyl-2-oxo-1,2-dihydro-1,8-naphthyridine-3-carboxamido)acetic acid], the IC50 is less than 0.05 µM.

`C#Cc1cnc2c(c1)c(O)c(C(=O)NCC(=O)O)c(=O)n2C` [Example 80, 2-(6-Ethynyl-4-hydroxy-1-methyl-2-oxo-1,2-dihydro-1,8-naphthyridine-3-carboxamido)acetic acid] gave an IC50 of 0.1 to 0.5 µM.

`Cn1c(=O)c(C(=O)NCC(=O)O)c(O)c2cc(CCC3CC3)cnc21` [Example 81, 2-(6-(2-Cyclopropylethyl)-4-hydroxy-1-methyl-2-oxo-1,2-dihydro-1,8-naphthyridine-3-carboxamido)acetic acid] yielded an IC50 of less than 0.05 µM.

`Cn1c(=O)c(C(=O)NCC(=O)O)c(O)c2cc(C#CC3CC3)cnc21` [Example 82, 2-(6-(2-Cyclopropylethynyl)-4-hydroxy-1-methyl-2-oxo-1,2-dihydro-1,8-naphthyridine-3-carboxamido)acetic acid] registered an IC50 of less than 0.05 µM.

In turn, `CCCc1cnc2c(c1)c(O)c(C(=O)NCC(=O)O)c(=O)n2C` [Example 83, 2-(4-Hydroxy-1-methyl-2-oxo-6-propyl-1,2-dihydro-1,8-naphthyridine-3-carboxamido)acetic acid] showed an IC50 of 0.05 to 0.1 µM.

Compound `CC#Cc1cnc2c(c1)c(O)c(C(=O)NCC(=O)O)c(=O)n2C` [Example 84, 2-(4-Hydroxy-1-methyl-2-oxo-6-(prop-1-ynyl)-1,2-dihydro-1,8-naphthyridine-3-carboxamido)acetic acid] came in with an IC50 of 0.1 to 0.5 µM.

In turn, `Cn1c(=O)c(C(=O)NCC(=O)O)c(O)c2cc(C#N)cnc21` [Example 85, N-((6-Cyano-4-hydroxy-1-methyl-2-oxo-1,2-dihydro-1,8-naphthyridin-3-yl)carbonyl)glycine] came in with an IC50 of less than 0.05 µM.

In the case of `Cn1c(=O)c(C(=O)NCC(=O)O)c(O)c2ccc(C(F)(F)F)nc21` [Example 86, 2-(4-Hydroxy-1-methyl-2-oxo-7-(trifluoromethyl)-1,2-dihydro-1,8-naphthyridine-3-carboxamido)acetic acid], the IC50 was less than 0.05 µM.

For `O=C(O)CNC(=O)c1c(O)c2ccc(C(F)(F)F)nc2[nH]c1=O` [Example 87, 2-(4-Hydroxy-2-oxo-7-(trifluoromethyl)-1,2-dihydro-1,8-naphthyridine-3-carboxamido)acetic acid], the IC50 is less than 0.05 µM.

The compound `C[C@H](NC(=O)c1c(O)c2ccc(C(F)(F)F)nc2[nH]c1=O)C(=O)O` [Example 88, (S)-2-(4-Hydroxy-2-oxo-7-(trifluoromethyl)-1,2-dihydro-1,8-naphthyridine-3-carboxamido)propanoic acid] showed an IC50 of 0.1 to 0.5 µM.

Compound `C[C@H](NC(=O)c1c(O)c2ccc(C(F)(F)F)nc2n(C)c1=O)C(=O)O` [Example 89, (S)-2-(4-Hydroxy-1-methyl-2-oxo-7-(trifluoromethyl)-1,2-dihydro-1,8-naphthyridine-3-carboxamido)propanoic acid] had an IC50 of 0.05 to 0.1 µM.

`Cn1c(=O)c(C(=O)NCC(=O)O)c(O)c2cc(-c3ccccc3)c(C(F)(F)F)nc21` [Example 90, 2-(4-Hydroxy-1-methyl-2-oxo-6-phenyl-7-(trifluoromethyl)-1,2-dihydro-1,8-naphthyridine-3-carboxamido)acetic acid]: the IC50 was less than 0.05 µM.

In the case of `Cn1c(=O)c(C(=O)NCC(=O)O)c(O)c2cc(-c3cccnc3)c(C(F)(F)F)nc21` [Example 91, 2-(4-Hydroxy-1-methyl-2-oxo-6-(pyridin-3-yl)-7-(trifluoromethyl)-1,2-dihydro-1,8-naphthyridine-3-carboxamido)acetic acid], the IC50 was less than 0.05 µM.

The compound `Cc1ncccc1-c1cc2c(O)c(C(=O)NCC(=O)O)c(=O)n(C)c2nc1C(F)(F)F` [Example 92, 2-(4-Hydroxy-1-methyl-6-(2-methylpyridin-3-yl)-2-oxo-7-(trifluoromethyl)-1,2-dihydro-1,8-naphthyridine-3-carboxamido)acetic acid] displayed an IC50 of less than 0.05 µM.

Compound `Cn1c(=O)c(C(=O)NCC(=O)O)c(O)c2cc(C3CC3)c(C(F)(F)F)nc21` [Example 93, 2-(6-cyclopropyl-4-hydroxy-1-methyl-2-oxo-7-(trifluoromethyl)-1,2-dihydro-1,8-naphthyridine-3-carboxamido)acetic acid] came in with an IC50 of 0.05 to 0.1 µM.

With `Cn1c(=O)c(C(=O)NCC(=O)O)c(O)c2cc(Br)c(C(F)(F)F)nc21` [Example 94, 2-(6-Bromo-4-hydroxy-1-methyl-2-oxo-7-(trifluoromethyl)-1,2-dihydro-1,8-naphthyridine-3-carboxamido)acetic acid], the IC50 is less than 0.05 µM.

`Cn1c(=O)c(C(=O)NCC(=O)O)c(O)c2cc(C3CCCCC3)c(C(F)(F)F)nc21` [Example 95, 2-(6-Cyclohexyl-4-hydroxy-1-methyl-2-oxo-7-(trifluoromethyl)-1,2-dihydro-1,8-naphthyridine-3-carboxamido)acetic acid] gave an IC50 of 0.1 to 0.5 µM.

`Cn1c(=O)c(C(=O)NCC(=O)O)c(O)c2cc(C3=CCCCC3)c(C(F)(F)F)nc21` [Example 96, 2-(6-Cyclohexenyl-4-hydroxy-1-methyl-2-oxo-7-(trifluoromethyl)-1,2-dihydro-1,8-naphthyridine-3-carboxamido)acetic acid] returned an IC50 of less than 0.05 µM.

Consider `Cn1c(=O)c(C(=O)NCC(=O)O)c(O)c2cc(C#CC3CC3)c(C(F)(F)F)nc21` [Example 97, 2-(6-(2-Cyclopropylethynyl)-4-hydroxy-1-methyl-2-oxo-7-(trifluoromethyl)-1,2-dihydro-1,8-naphthyridine-3-carboxamido)acetic acid], for which the IC50 is less than 0.05 µM.

As for `Cn1c(=O)c(C(=O)NCC(=O)O)c(O)c2cc(C3CCCC3)c(C(F)(F)F)nc21` [Example 98, 2-(6-Cyclopentyl-4-hydroxy-1-methyl-2-oxo-7-(trifluoromethyl)-1,2-dihydro-1,8-naphthyridine-3-carboxamido)acetic acid], the IC50 was in the range of 0.1 to 0.5 µM.

Compound `Cn1c(=O)c(C(=O)NCC(=O)O)c(O)c2cc(-c3ccccc3)ncc21` [Example 105, N-((4-Hydroxy-1-methyl-2-oxo-6-phenyl-1,2-dihydro-1,7-naphthyridin-3-yl)carbonyl)glycine] showed an IC50 of less than 0.05 µM.

The compound `Cc1ccccc1-c1cc2c(O)c(C(=O)NCC(=O)O)c(=O)n(C)c2cn1` [Example 106, N-((4-Hydroxy-1-methyl-6-(2-methylphenyl)-2-oxo-1,2-dihydro-1,7-naphthyridin-3-yl)carbonyl)glycine] came in with an IC50 of less than 0.05 µM.

Take `Cn1c(=O)c(C(=O)NCC(=O)O)c(O)c2cc(-c3cccnc3)ncc21` [Example 107, N-((4-Hydroxy-1-methyl-2-oxo-6-(3-pyridinyl)-1,2-dihydro-1,7-naphthyridin-3-yl)carbonyl)glycine]: the IC50 lay within 0.05 to 0.1 µM.

Consider `Cn1c(=O)c(C(=O)NCC(=O)O)c(O)c2cc(-c3ccc4c(c3)CCO4)ncc21` [Example 108, N-((6-(2,3-Dihydro-1-benzofuran-5-yl)-4-hydroxy-1-methyl-2-oxo-1,2-dihydro-1,7-naphthyridin-3-yl)carbonyl)glycine], for which the IC50 is less than 0.05 µM.

The compound `Cn1c(=O)c(C(=O)NCC(=O)O)c(O)c2cc(-c3cccs3)ncc21` [Example 109, N-((4-Hydroxy-1-methyl-2-oxo-6-(2-thienyl)-1,2-dihydro-1,7-naphthyridin-3-yl)carbonyl)glycine] came in with an IC50 of less than 0.05 µM.

`Cn1c(=O)c(C(=O)NCC(=O)O)c(O)c2cc(-c3ccc(OC(F)(F)F)cc3)ncc21` [Example 110, 2-(4-Hydroxy-1-methyl-2-oxo-6-(4-(trifluoromethoxy)phenyl)-1,2-dihydro-1,7-naphthyridine-3-carboxamido)acetic acid, Trifluoroacetic acid salt.]: the IC50 was less than 0.05 µM.

With `Cn1c(=O)c(C(=O)NCC(=O)O)c(O)c2cc(Cl)ncc21` [Example 111, 2-(6-Chloro-4-hydroxy-1-methyl-2-oxo-1,2-dihydro-1,7-naphthyridine-3-carboxamido)acetic acid], the IC50 was less than 0.05 µM.

The values above are taken from patent US8048892B2, “Azaquinolone based compounds exhibiting prolyl hydroxylase inhibitory activity, compositions, and uses thereof” (Amgen Inc., priority 2006, dated 2011).
